Consider four compounds from publication PMC11562385 (RSC Chemical Biology, 2024).

Like-named read-outs stand apart in the source and are kept apart here. Peptide text beside a SMILES is read from it. Some results are limits rather than exact numbers.

In one data set the target is T1, PD1:PDL1 interaction (Homo sapiens, UniProt Q15116).
T1 construct: purchased BPS Bioscience 72005
The data set is described as follows: PD1/PDL1 immunoblocking ELISA (BPS Bioscience kit cat # 72005). It is filed as binding. As to conditions: for LE (ligand efficiency): LE = -RTln(EC50)/HA, HA = non-hydrogen atoms omitting the strap (RWV•••VWE). The protocol:
Original loops with Phe/Trp and their Gly-derived analogs. Experimental EC50 values from inhibitory dose–response curves. Error bars indicate the mean ± SD, (n = 3). […]
SDS -Pages, buffers, and stain were purchased from Fisher
8. Immunoblocking ELISA Assay
Peptide inhibitor stock solutions were prepared in the concentration range of approximately 1-5 mM in DMSO. […]
plate was then washed and blocked with blocking buffer for 1 h at room temperature. Inhibitor solutions (ranging from 0.01 to 100 μM) and a blank solution (DMSO/PBS buffer) were added to designated wells. To initiate the […]
inhibitor solutions. After a 2 h incubation at room temperature, the plate was washed and blocked again for 10 min. Streptavidin-HRP (diluted at 1 : 1000) was added and incubated for 1 h at room temperature with gentle shaking. The plate was washed and blocked once more for 10 min. ELISA ECL substrate was added, and the resulting chemoluminescence was immediately measured in a luminometer (FLUOstar OPTIMA, BMG Labtech).
The luminescence value of the blank was subtracted from all readings according to the manufacturer's

Data set [1] in a line: Variable-temperature CD melting curves (CD-melts at 228±2 nm and 202±2 nm), individual and global two-state fits. In kind it is physicochemical. Also noted: DSo: unit not given here. As to conditions: for ΔGF0: CD-melt at 228±2 nm, individual two-state Gibbs-Helmholtz fit (Origin 9.0), phosphate buffer 15 mM pH 6.5 ± MeOH; for -TΔSF0 / ΔCpF0 / ΔHF0 / ΔHm: as E16; for VT-CD %-fold: folded fraction (χF) at 25 °C from CD-melts, (R) regular / (B) bulged fold; for VT-CD %-fold / VT-CD Tm (°C): phosphate buffer 15 mM pH 6.5, up to 20% MeOH; for VT-CD Tm (°C): melting temperature from CD-melts; for DHm, fitted value from OriginPro / Tm, fitted value from OriginPro: xlsx sheet of the peptide, individual fit of CD-melt. The protocol: Recently, our laboratory brought forward a novel synthetic technology for the synthesis of acyclic β-hairpins with long loops. […] To compare hairpins’ stability, both regular (R) and bulged (B) scaffolds were crafted around a flexible 10-residue model loop (G4K2G4) and analyzed by CD (circular dichroism) spectroscopy (Fig. 2(A), see ESI, ^† Table S5). The […] structure of these model scaffolds 1avs.2a in solution were recorded in the far-UV CD spectra. […] The CD-exciton intensity was therefore used as a global probe to determine the %-folding of ADAPTins and to obtain melting curves corresponding to the hairpin fraying mechanism upon a gradual increase of temperature (0 to 95 °C).[68] […] In addition, NMR (nuclear magnetic resonance) chemical shifts were measured to determine variations in backbone […] structures (Fig. 2(B)). Secondary chemical shift deviations (CSDs) were calculated against random coil values[69] for both ADAPTin scaffolds 1vs.2 to verify that the hairpins were folded and if any variation of conformational rigidity exist within the loops. […]
Mass Spectrometer coupled to a Vanquish™ Neo UHPLC System (Thermo Scientific™). Peptide solutions for circular dichroism (CD) were prepared within a concentration range of 15-120 µM in a phosphate buffer (15 mM, […]
measured accurately using a JASCO V-670 spectrophotometer relied on the combined molar absorptivity of Trp (ε280 = 5580 M-1 .cm-1 per Trp) and Tyr (ε280 = 1280 M-1 .cm-1 per Tyr) to determine each sample's concentration.
CD spectra were recorded using a JASCO J-810 Spectropolarimeter equipped with a temperature controller module JASCO PFD-425S. Raw CD melting curves were processed in SpectraGryph, and fitting was performed in OriginPro 9.0 (Originlab Corporation, U.S.A.). NMR samples were prepared by reconstituting freeze -dried peptides (~ 1-5 mg) in mixture of water and DMSO -d6 (90:10 v/v) using 2,2-dimethyl-2-silapentane-5-sulfonate (DSS) as internal standard for chemical shifts (0 ppm), and spectra were recorded at 291 K (18 °C) unless otherwise stated. Chemical shifts ( δ) are reported in ppm. Samples for NMR experiments were prepared in a range of 3-10 mM of peptide in solution unless otherwise noted.

The mark [2] stands for this setting: ELISA, mean of three independent experiments, read-out: EC50 Value.
The mark [3] stands for this setting: [PD1•PDL1] blocking EC50, Fig. 3B, cut-off bars of congeneric pairs (Phe/Trp vs Gly), n = 3.
Setting [4] is: Table S5, individual fit, 228±2 nm.
[5] abbreviates: Table S5, individual fit, 291 K.
Setting [6] is: Table S5, individual fit, 310 K.
Where [7] appears, read: two-state fit of the CD melt θ - θcoil(95) vs T, 0-95 °C, l 0.1 cm, peptide c 3.2e-5 to 5e-5 M.

T1 sequence (Q15116 25-167 limits assumed): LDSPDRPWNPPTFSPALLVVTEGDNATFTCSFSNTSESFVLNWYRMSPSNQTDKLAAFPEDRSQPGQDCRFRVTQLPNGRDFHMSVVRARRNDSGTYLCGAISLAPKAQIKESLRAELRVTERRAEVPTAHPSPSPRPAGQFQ

As for `CSCC[C@H](NC(=O)[C@H](CC(=O)O)NC(=O)CNC(=O)[C@H](CCCNC(=N)N)NC(=O)[C@H](Cc1ccc(O)cc1)NC(=O)[C@H](CC(=O)O)NC(=O)[C@H](CCCNC(=N)N)NC(=O)[C@H](Cc1c[nH]c2ccccc12)NC(=O)[C@@H](NC(=O)[C@H](Cc1c[nH]c2ccccc12)NC(=O)[C@@H](N)CCCNC(=N)N)C(C)C)C(=O)NCC(=O)N[C@@H](Cc1ccccc1)C(=O)N[C@@H](CC(=O)O)C(=O)N[C@@H](Cc1c[nH]c2ccccc12)C(=O)N[C@H](C(=O)N[C@@H](Cc1c[nH]c2ccccc12)C(=O)N[C@@H](CCC(=O)O)C(=O)O)C(C)C` [1b] (H-RWVWRDYRGDMGFDWVWE-OH), the EC50 at PD1:PDL1 interaction (setting [2]) is 7.08 µM. In addition, on PD1:PDL1 interaction, the “LE (ligand efficiency)” value is given as 0.06. The EC50 at PD1:PDL1 interaction (setting [3]) is > 5 µM. In data set [1] (0-95 °C), the ΔGF0 is -0.64 ± 0.01 kcal/mol. Besides, in data set [1] (CD-melt of 1b, c 3.4e-5 M, l 0.1 cm, two-state fit in OriginPro), the “DCp (fitted value)” value is given as -40.77 cal/(deg.mol). The “DHm (fitted value)” value in data set [1] (CD-melt of 1b, c 3.4e-5 M, l 0.1 cm, two-state fit in OriginPro, enthalpy at Tm) is -9.84462 kcal/mol. The “cF(18 oC), fraction folded” value in data set [1] (CD-melt of 1b, two-state fit in OriginPro, 18 °C) was 81%. Also, in data set [1] (CD-melt of 1b, two-state fit in OriginPro, standard-state entropic term), the TDSo was -8.2949 kcal/mol. Further, in data set [1] (CD-melt of 1b, two-state fit in OriginPro, standard-state folding enthalpy), the DHo was -8.9431 kcal/mol. In data set [1] (CD-melt of 1b, two-state fit in OriginPro, standard-state folding entropy), the DSo is reported as -27.84. Further, the DGo in data set [1] (CD-melt of 1b, two-state fit in OriginPro, standard-state folding free energy) was -0.6482 kcal/mol. Moreover, in data set [1] (CD-melt of 1b, two-state fit in OriginPro, the fitted Tm restated without a unit (apparently °C)), the Tm was found to be 47 °C. The “%fold 291K” value in data set [1] (CD-melt of 1b, two-state fit, 291 K) is 81%. Also, the “%fold 310K” value in data set [1] (CD-melt of 1b, two-state fit, 310 K) is given as 62%. The “Tm (fitted value)” value in data set [1] (CD-melt of 1b, θ - θcoil(95) vs T 0-95 °C, c 3.4e-5 M, l 0.1 cm, two-state fit in OriginPro) was found to be 320.113 K. Further, the “TM (°C)” value in data set [1] (Fig. 2, CD-melts of regular vs bulged scaffolds) came to 47 °C. For the same compound, the Tm in data set [1] (setting [4]) was determined as 46.9 oC. Also, the “Hairpin %-fold 291K” value in data set [1] (setting [5]) is on record as 81 ± 1%. The “Hairpin %-fold 310K” value in data set [1] (setting [6]) is reported as 62 ± 1%. In data set [1], the “-TΔSF0” value amounted to 8.29 ± 0.02 kcal/mol, the ΔCpF0 was -41 ± 1 cal.deg-1.mol-1, the ΔHF0 was -8.94 ± 0.02 kcal/mol and the ΔHm is -9.84 ± 0.01 kcal/mol. In data set [1], the VT-CD %-fold is 81% (R) and the “VT-CD Tm (°C)” value was determined as 47 °C.
In the case of `CSCC[C@H](NC(=O)[C@H](CC(=O)O)NC(=O)[C@H](Cc1ccccc1)NC(=O)[C@H](CCCNC(=N)N)NC(=O)[C@H](Cc1ccc(O)cc1)NC(=O)[C@H](CC(=O)O)NC(=O)[C@H](CCCNC(=N)N)NC(=O)[C@H](Cc1c[nH]c2ccccc12)NC(=O)[C@@H](NC(=O)[C@H](Cc1c[nH]c2ccccc12)NC(=O)[C@@H](N)CCCNC(=N)N)C(C)C)C(=O)NCC(=O)N[C@@H](Cc1ccccc1)C(=O)N[C@@H](CC(=O)O)C(=O)N[C@@H](Cc1c[nH]c2ccccc12)C(=O)N[C@H](C(=O)N[C@@H](Cc1c[nH]c2ccccc12)C(=O)N[C@@H](CCC(=O)O)C(=O)O)C(C)C` [1c] (H-RWVWRDYRFDMGFDWVWE-OH), the “LE (ligand efficiency)” value on PD1:PDL1 interaction was found to be 0.06. At PD1:PDL1 interaction (PD1:PDL1 inhibition EC50, ELISA, PDL1-coated plate, biotin-labeled human PD-1, 2 h rt, chemiluminescence, Hill fit, mean ± SD, n = 3, SD), this compound yielded an EC50 of 12.3 ± 1.5 µM. The EC50 at PD1:PDL1 interaction (setting [3]) was > 5 µM. The compound also showed a ΔGF0 in data set [1] (0-95 °C) of 0.31 ± 0.01 kcal/mol. In data set [1] (setting [4]), the Tm is reported as -2.99 oC. In data set [1] (setting [5]), the “Hairpin %-fold 291K” value is reported as 40 ± 1%. In data set [1] (setting [6]), the “Hairpin %-fold 310K” value is on record as 32 ± 1%. In data set [1], the “-TΔSF0” value was found to be 3.66 ± 0.01 kcal/mol, the ΔCpF0 is given as -23 ± 0.4 cal.deg-1.mol-1, the ΔHF0 was -3.35 ± 0.01 kcal/mol and the VT-CD %-fold is recorded as 40% (R). In addition, in data set [1], the “VT-CD Tm (°C)” value is <0 °C; the “DHm, fitted value from OriginPro” value was -2.72263 kcal/mol; the “Tm, fitted value from OriginPro” value is reported as 270.158 K.
`CSCC[C@H](NC(=O)[C@H](CC(=O)O)NC(=O)[C@H](Cc1ccccc1)NC(=O)[C@H](CCCNC(=N)N)NC(=O)[C@H](Cc1ccc(O)cc1)NC(=O)[C@H](CC(=O)O)NC(=O)[C@H](CCCNC(=N)N)NC(=O)[C@H](CCCNC(=N)N)NC(=O)[C@H](Cc1c[nH]c2ccccc12)NC(=O)[C@@H](NC(=O)[C@H](Cc1c[nH]c2ccccc12)NC(=O)[C@@H](N)CCCNC(=N)N)C(C)C)C(=O)NCC(=O)N[C@@H](Cc1ccccc1)C(=O)N[C@@H](CC(=O)O)C(=O)N[C@@H](Cc1ccc(O)cc1)C(=O)N[C@@H](Cc1c[nH]c2ccccc12)C(=O)N[C@H](C(=O)N[C@@H](Cc1c[nH]c2ccccc12)C(=O)N[C@@H](CCC(=O)O)C(=O)O)C(C)C` [1d] (H-RWVWRRDYRFDMGFDYWVWE-OH): the EC50 on PD1:PDL1 interaction (setting [2]) stood at 6.8 µM. Moreover, the “LE (ligand efficiency)” value at PD1:PDL1 interaction amounted to 0.05. In data set [1] (0-95 °C), this compound returned a ΔGF0 of 0.010 ± 0.001 kcal/mol. The Tm in data set [1] (setting [4]) came to 34.9 oC. The “Hairpin %-fold 291K” value in data set [1] (setting [5]) is listed as 48 ± 1%. In addition, in data set [1] (setting [6]), the “Hairpin %-fold 310K” value stood at 49 ± 1%. In data set [1], the “-TΔSF0” value was -1.08 ± 0.04 kcal/mol, the ΔCpF0 was -189 ± 2 cal.deg-1.mol-1, the ΔHF0 stood at 1.09 ± 0.04 kcal/mol and the ΔHm was -0.037 ± 0.07 kcal/mol. In addition, in data set [1], the VT-CD %-fold is on record as 49% (R); the “DHm, fitted value from OriginPro” value was -0.0374427 kcal/mol; the “Tm, fitted value from OriginPro” value came to 303.944 K.
As to `CC(C)[C@H](NC(=O)CNC(=O)[C@H](CO)NC(=O)[C@H](CO)NC(=O)[C@H](CC(=O)O)NC(=O)[C@@H]1CCCN1C(=O)[C@H](CO)NC(=O)[C@H](Cc1c[nH]c2ccccc12)NC(=O)[C@@H](NC(=O)[C@H](Cc1c[nH]c2ccccc12)NC(=O)[C@@H](N)CCCNC(=N)N)C(C)C)C(=O)N[C@@H](C)C(=O)N[C@@H](Cc1ccc(O)cc1)C(=O)N[C@@H](Cc1c[nH]c2ccccc12)C(=O)N[C@H](C(=O)N[C@@H](Cc1c[nH]c2ccccc12)C(=O)N[C@@H](CCC(=O)O)C(=O)O)C(C)C` [1e] (H-RWVWSPDSSGVAYWVWE-OH), the EC50 on PD1:PDL1 interaction (setting [2]) was 0.27 µM. Also, the “LE (ligand efficiency)” value on PD1:PDL1 interaction was 0.10. In addition, the ΔGF0 in data set [1] (0-95 °C) was -0.90 ± 0.01 kcal/mol. Moreover, the Tm in data set [1] (setting [4]) stood at 58.3 oC. For the same compound, in data set [1] (setting [5]), the “Hairpin %-fold 291K” value is 85 ± 1%. In data set [1] (setting [6]), the “Hairpin %-fold 310K” value came to 74 ± 1%. Moreover, in data set [1], the “-TΔSF0” value turned out to be 5.60 ± 0.06 kcal/mol, the ΔCpF0 is on record as -148 ± 4 cal.deg-1.mol-1, the ΔHF0 was -6.50 ± 0.06 kcal/mol and the ΔHm was -11.5 ± 0.05 kcal/mol. In addition, in data set [1], the VT-CD %-fold was 85% (R) and the “VT-CD Tm (°C)” value worked out at 58 °C. In data set [1] (setting [7]), the “DHm (fitted value, results from OriginPro)” value is -11.4534 kcal/mol and the “Tm (fitted value, results from OriginPro)” value amounted to 331.438 K.
